{"source": "patent US20210268101A1", "about": "(priority 2020, published 2021)", "system": "Balb/c mice", "settings": "serum 1:50", "note": "Values joined by “and” are separate entries in the source; they are usually repeats but may differ in a detail not shown here. Identical values can stand only once. Like-named read-outs stand apart in the source and are kept apart here.", "data": [{"sequence": "DGQEEKAGVVSTGLIGGGVILLNKHIDAYKTF [DerG-NP350]", "values": [{"measurement": "Responders/Group Total (n = 8)", "setting": "cutoff OD 0.3 (A450), Day 10", "result": "8 and 8/8"}, {"measurement": "Responders/Group Total (n = 8)", "setting": "cutoff OD 0.3 (A450), Day 19", "result": "8/8"}, {"measurement": "Responders/Group Total (n = 8)", "setting": "cutoff OD 0.3 (A450), Day 28", "result": "8/8"}, {"measurement": "Responders/Group Total (n = 8)", "setting": "cutoff OD 0.3 (A450), Day 42", "result": "8/8"}, {"measurement": "Responders/Group Total (n = 8)", "setting": "cutoff OD 0.5 (A450), Day 10", "result": "8 and 8/8"}, {"measurement": "Responders/Group Total (n = 8)", "setting": "cutoff OD 0.5 (A450), Day 19", "result": "8/8"}, {"measurement": "Responders/Group Total (n = 8)", "setting": "cutoff OD 0.5 (A450), Day 28", "result": "8/8"}, {"measurement": "Responders/Group Total (n = 8)", "setting": "cutoff OD 0.5 (A450), Day 42", "result": "8/8"}, {"measurement": "Responders/Group Total (n = 8)", "setting": "cutoff OD 1.0 (A450), Day 10", "result": "2/8"}, {"measurement": "Responders/Group Total (n = 8)", "setting": "cutoff OD 1.0 (A450), Day 28", "result": "8/8"}, {"measurement": "Responders/Group Total (n = 8)", "setting": "cutoff OD 1.0 (A450), Day 42", "result": "8/8"}, {"measurement": "Responders/Group Total (n = 8)", "setting": "cutoff OD 1.5 (A450), Day 10", "result": "0/8"}, {"measurement": "Responders/Group Total (n = 8)", "setting": "cutoff OD 1.5 (A450), Day 28", "result": "8/8"}, {"measurement": "Responders/Group Total (n = 8)", "setting": "cutoff OD 1.5 (A450), Day 42", "result": "8/8"}]}, {"sequence": "DLLKNGERIEKVEGGGVILLNKHIDAYKTF [J-NP350]", "values": [{"measurement": "Responders/Group Total (n = 8)", "setting": "cutoff OD 0.3 (A450), Day 19", "result": "7/8"}, {"measurement": "Responders/Group Total (n = 8)", "setting": "cutoff OD 0.3 (A450), Day 28", "result": "8/8"}, {"measurement": "Responders/Group Total (n = 8)", "setting": "cutoff OD 0.3 (A450), Day 42", "result": "8/8"}, {"measurement": "Responders/Group Total (n = 8)", "setting": "cutoff OD 0.5 (A450), Day 19", "result": "7/8"}, {"measurement": "Responders/Group Total (n = 8)", "setting": "cutoff OD 0.5 (A450), Day 28", "result": "8/8"}, {"measurement": "Responders/Group Total (n = 8)", "setting": "cutoff OD 0.5 (A450), Day 42", "result": "8/8"}, {"measurement": "Responders/Group Total (n = 8)", "setting": "cutoff OD 1.0 (A450), Day 10", "result": "0/8"}, {"measurement": "Responders/Group Total (n = 8)", "setting": "cutoff OD 1.0 (A450), Day 19", "result": "6 and 6/8"}, {"measurement": "Responders/Group Total (n = 8)", "setting": "cutoff OD 1.0 (A450), Day 28", "result": "8/8"}, {"measurement": "Responders/Group Total (n = 8)", "setting": "cutoff OD 1.0 (A450), Day 42", "result": "8/8"}, {"measurement": "Responders/Group Total (n = 8)", "setting": "cutoff OD 1.5 (A450), Day 10", "result": "0/8"}, {"measurement": "Responders/Group Total (n = 8)", "setting": "cutoff OD 1.5 (A450), Day 19", "result": "1/8"}, {"measurement": "Responders/Group Total (n = 8)", "setting": "cutoff OD 1.5 (A450), Day 28", "result": "2/8"}, {"measurement": "Responders/Group Total (n = 8)", "setting": "cutoff OD 1.5 (A450), Day 42", "result": "6 and 6/8"}]}]}
